Measurements taken from PubChem BioAssay (NCI).
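Five concentrations, 48 hours, 96-well plates. GI50 = concentration required for 50% inhibition of growth. At the TGI there is no net growth.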

Assays:
Test in all cases: NCI-60 cell line screen, 48 h
HCT-15 colon = test system: HCT-15 colon
OVCAR-5 ovarian = test system: OVCAR-5 ovarian
ACHN renal = test system: ACHN renal
HT29 colon = test system: HT29 colon
SNB-75 CNS = test system: SNB-75 CNS
NCI-H522 lung = test system: NCI-H522 lung
MDA-MB-468 breast = test system: MDA-MB-468 breast
LOX IMVI melanoma = test system: LOX IMVI melanoma
IGROV1 ovarian = test system: IGROV1 ovarian
OVCAR-4 ovarian = test system: OVCAR-4 ovarian
EKVX NSCLC = test system: EKVX NSCLC
A498 renal = test system: A498 renal
NCI-H23 lung = test system: NCI-H23 lung
SK-MEL-28 melanoma = test system: SK-MEL-28 melanoma
A549 NSCLC = test system: A549 NSCLC
TK-10 renal = test system: TK-10 renal
UACC-257 melanoma = test system: UACC-257 melanoma
MCF7 breast = test system: MCF7 breast
SF-539 CNS = test system: SF-539 CNS
OVCAR-8 ovarian = test system: OVCAR-8 ovarian
HOP-62 NSCLC = test system: HOP-62 NSCLC
NCI-H226 lung = test system: NCI-H226 lung
U251 CNS = test system: U251 CNS
PC-3 prostate = test system: PC-3 prostate
UO-31 renal = test system: UO-31 renal
SW-620 colon = test system: SW-620 colon
SK-OV-3 ovarian = test system: SK-OV-3 ovarian
HOP-92 NSCLC = test system: HOP-92 NSCLC
SNB-19 CNS = test system: SNB-19 CNS

Brc1ccc(N/N=C/c2c[nH]c3ccc(Br)cc23)nc1
GI50 (HCT-15 colon): 1800 nM
TGI (HCT-15 colon): 4.25 µM
GI50 (OVCAR-5 ovarian): 2320 nM
TGI (OVCAR-5 ovarian): 9.51 µM
GI50 (ACHN renal): 2660 nM
TGI (ACHN renal): 10.5 µM
GI50 (HT29 colon): 2390 nM
TGI (HT29 colon): 5.32 µM
GI50 (SNB-75 CNS): 568 nM
TGI (SNB-75 CNS): 6.01 µM
GI50 (NCI-H522 lung): 1600 nM
TGI (NCI-H522 lung): 5.54 µM
GI50 (MDA-MB-468 breast): 1610 nM
TGI (MDA-MB-468 breast): 4.2 µM
GI50 (LOX IMVI melanoma): 1110 nM
TGI (LOX IMVI melanoma): 2490 nM
GI50 (IGROV1 ovarian): 251 nM
TGI (IGROV1 ovarian): 1890 nM
GI50 (OVCAR-4 ovarian): 4.07 µM
TGI (OVCAR-4 ovarian): 17.8 µM
GI50 (EKVX NSCLC): 1740 nM
TGI (EKVX NSCLC): 10.9 µM
GI50 (A498 renal): 4.03 µM
TGI (A498 renal): 13.3 µM
GI50 (NCI-H23 lung): 2140 nM
TGI (NCI-H23 lung): 8.21 µM
GI50 (SK-MEL-28 melanoma): 3.58 µM
TGI (SK-MEL-28 melanoma): 13.2 µM
GI50 (A549 NSCLC): 3.26 µM
TGI (A549 NSCLC): 12.7 µM
GI50 (TK-10 renal): 5.85 µM
TGI (TK-10 renal): 15.1 µM
GI50 (UACC-257 melanoma): 3.47 µM
TGI (UACC-257 melanoma): 15.3 µM
GI50 (MCF7 breast): 1590 nM
TGI (MCF7 breast): 7.85 µM
GI50 (SF-539 CNS): 795 nM
TGI (SF-539 CNS): 8.06 µM
GI50 (OVCAR-8 ovarian): 2960 nM
TGI (OVCAR-8 ovarian): 17 µM
GI50 (HOP-62 NSCLC): 3.14 µM
TGI (HOP-62 NSCLC): 13 µM
GI50 (NCI-H226 lung): 674 nM
TGI (NCI-H226 lung): 10.3 µM
GI50 (U251 CNS): 2540 nM
TGI (U251 CNS): 10.5 µM
GI50 (PC-3 prostate): 851 nM
TGI (PC-3 prostate): 10.1 µM
GI50 (UO-31 renal): 532 nM
TGI (UO-31 renal): 7.55 µM
GI50 (SW-620 colon): 2850 nM
TGI (SW-620 colon): 11.7 µM
GI50 (SK-OV-3 ovarian): 2710 nM
TGI (SK-OV-3 ovarian): 13.7 µM
GI50 (HOP-92 NSCLC): 1510 nM
TGI (HOP-92 NSCLC): 4.27 µM
GI50 (SNB-19 CNS): 3.09 µM
TGI (SNB-19 CNS): 12.4 µM
